One assay has as its target T1, human FGFR1 (Homo sapiens, UniProt P11362).
T1 construct: purchased Invitrogen PV3146
Put plainly: 33P isotope-labeled kinase activity assay (Reaction Biology Corp), FGFR1. Type of assay: biochemical. The note with it: 33P-ATP kinase assay, ATP 5 μM, kinase 1.75 nM, substrate pEY + Mn, 120 minutes at room temperature. As for the experimental part: (§1) The IC50 value was determined by ^33P isotope-labeled kinase activity assay (Reaction Biology Corp) to evaluate the inhibitory activity of the test compounds on human FGFR1 and FGFR4.
(§2) Buffer: 20 mM Hepes (pH 7.5), 10 mM MgCl2, 1 mM EGTA, 0.02% Brij35, 0.02 mg/mL BSA, 0.1 mM Na3VO4, 2 mM DTT, 1% DMSO.
(§3) Test procedure: the test compound was dissolved in DMSO at room temperature to prepare a 10 mM solution for use. The substrate was dissolved in a freshly prepared buffer, followed by addition of the kinase to be tested and the resulting mixture was thoroughly mixed. The solution of the test compound in DMSO was added to the above reaction solution by acoustic technique (Echo 550). The concentration of the compound in the reaction solution was 10 μM, 3.33 μM, 1.11 μM, 0.370 μM, 0.123 μM, 41.2 nM, 13.7 nM, 4.57 nM, 1.52 nM, 0.508 nM, or […], 39.1 nM, 9.8 nM, 2.4 nM, 0.61 nM, 0.15 nM, 0.038 nM. After incubation for 15 minutes, ^33P-ATP (activity 0.01 μCi/μL, corresponding concentration was listed in table 1) was added to initiate the reaction. The reaction was allowed to proceed at room temperature for 120 minutes, then the reaction solution was spotted on P81 ion exchange filter paper (Whatman #3698-915). After the filter paper was washed with 0.75% phosphoric acid solution, the radioactivity of the remained phosphorylated substrate on the filter paper was determined. The kinase activity data was expressed as a ratio of the kinase activity of the test compound to the kinase activity of the control group (DMSO), and the IC50 value was obtained by curve fitting using Prism4 software (GraphPad).

The target of the next assay is T2, human FGFR4 (Homo sapiens, UniProt P22455).
T2 construct: purchased Invitrogen P3054
T2 sequence (P22455 22-802): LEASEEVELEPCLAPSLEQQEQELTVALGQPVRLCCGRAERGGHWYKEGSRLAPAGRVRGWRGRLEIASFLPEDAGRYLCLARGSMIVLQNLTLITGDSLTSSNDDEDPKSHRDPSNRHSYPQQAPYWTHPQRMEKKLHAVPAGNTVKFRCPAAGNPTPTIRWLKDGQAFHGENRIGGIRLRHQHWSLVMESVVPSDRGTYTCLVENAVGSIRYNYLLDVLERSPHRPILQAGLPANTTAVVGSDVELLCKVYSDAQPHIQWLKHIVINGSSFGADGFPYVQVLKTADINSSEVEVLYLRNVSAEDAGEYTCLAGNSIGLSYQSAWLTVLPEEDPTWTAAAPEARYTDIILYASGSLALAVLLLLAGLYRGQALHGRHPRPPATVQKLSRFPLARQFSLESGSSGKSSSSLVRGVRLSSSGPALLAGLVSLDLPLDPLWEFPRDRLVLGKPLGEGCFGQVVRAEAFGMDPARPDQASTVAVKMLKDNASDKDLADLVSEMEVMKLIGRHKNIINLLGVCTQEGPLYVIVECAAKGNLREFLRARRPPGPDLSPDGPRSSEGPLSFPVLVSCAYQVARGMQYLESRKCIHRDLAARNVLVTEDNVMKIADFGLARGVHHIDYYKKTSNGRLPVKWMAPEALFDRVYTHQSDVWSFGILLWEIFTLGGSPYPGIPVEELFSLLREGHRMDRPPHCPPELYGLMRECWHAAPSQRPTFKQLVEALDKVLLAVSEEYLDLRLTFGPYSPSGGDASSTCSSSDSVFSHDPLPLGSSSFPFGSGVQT
Put plainly: 33P isotope-labeled kinase activity assay (Reaction Biology Corp), FGFR4. The note with it: for IC50: 33P-ATP kinase assay, ATP 100 μM, kinase 2.5 nM, substrate pEY + Mn, 120 minutes at room temperature; for Inhibition activity difference (IC50 ratio) FGFR4/FGFR1: ratio of FGFR4 IC50 to FGFR1 IC50. In kind it is biochemical. As for the experimental part: as §1, §2, §3

SMILES strings stand for the structures.

T1 sequence (P11362 22-822): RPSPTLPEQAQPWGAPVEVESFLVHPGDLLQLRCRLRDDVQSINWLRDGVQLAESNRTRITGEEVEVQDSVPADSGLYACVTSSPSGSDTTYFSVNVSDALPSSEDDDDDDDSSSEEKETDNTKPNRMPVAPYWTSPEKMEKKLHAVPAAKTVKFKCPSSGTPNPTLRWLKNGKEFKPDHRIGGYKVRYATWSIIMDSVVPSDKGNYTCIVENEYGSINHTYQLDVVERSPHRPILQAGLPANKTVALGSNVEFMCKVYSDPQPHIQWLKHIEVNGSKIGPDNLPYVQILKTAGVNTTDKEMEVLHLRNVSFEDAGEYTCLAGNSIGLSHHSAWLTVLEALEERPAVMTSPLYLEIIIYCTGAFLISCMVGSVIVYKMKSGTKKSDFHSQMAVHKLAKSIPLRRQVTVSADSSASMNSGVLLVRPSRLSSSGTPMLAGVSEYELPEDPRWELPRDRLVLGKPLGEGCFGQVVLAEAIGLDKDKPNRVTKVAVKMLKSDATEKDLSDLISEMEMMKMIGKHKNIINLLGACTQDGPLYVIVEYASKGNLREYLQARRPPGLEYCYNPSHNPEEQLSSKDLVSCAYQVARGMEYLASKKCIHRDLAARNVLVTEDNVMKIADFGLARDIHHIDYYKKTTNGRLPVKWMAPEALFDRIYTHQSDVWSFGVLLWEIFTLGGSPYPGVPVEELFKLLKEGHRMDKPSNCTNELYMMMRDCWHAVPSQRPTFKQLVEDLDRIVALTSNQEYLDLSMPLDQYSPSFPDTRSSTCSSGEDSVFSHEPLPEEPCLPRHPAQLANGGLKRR

What is called IC50 is the midpoint of a concentration-inhibition curve. Take `C=CC(=O)N1CCC(c2cc(C#Cc3cc(OC)cc(OC)c3)c3c(N)ncnn23)C1` (single isomer, unassigned) [Embodiment 1]: the IC50 at human FGFR1 was found to be 18.3 nM. Moreover, on human FGFR4, the IC50 came to 125 nM and the “Inhibition activity difference (IC50 ratio) FGFR4/FGFR1” value is reported as 7.

For `C=CC(=O)N1CCC(c2cc(C#Cc3c(F)c(OC)cc(OC)c3F)c3c(N)ncnn23)C1` (single isomer, unassigned) [Embodiment 3], the IC50 on human FGFR1 amounted to 0.7 nM. Moreover, on human FGFR4, the IC50 is 6.6 nM and the “Inhibition activity difference (IC50 ratio) FGFR4/FGFR1” value was 9.

`C=CC(=O)N1CCC(c2cc(C#Cc3c(F)c(OC)cc(OC)c3F)c3c(N)ncnn23)C1` (single isomer, unassigned) [Embodiment 4]: on human FGFR1, the IC50 is 0.07 nM. Besides, on human FGFR4, the IC50 turned out to be 0.08 nM and the “Inhibition activity difference (IC50 ratio) FGFR4/FGFR1” value is on record as 1.

Regarding `C=CC(=O)N1CCC(c2cc(C#Cc3c(Cl)c(OC)cc(OC)c3Cl)c3c(N)ncnn23)C1` (single isomer, unassigned) [Embodiment 5], the IC50 at human FGFR1 was determined as 21.8 nM. Besides, on human FGFR4, the IC50 came out at 450 nM and the “Inhibition activity difference (IC50 ratio) FGFR4/FGFR1” value was 21.

Regarding `C=CC(=O)N1CCC(c2cc(C#Cc3c(Cl)c(OC)cc(OC)c3Cl)c3c(N)ncnn23)C1` (single isomer, unassigned) [Embodiment 6], at human FGFR1, the IC50 came to 0.3 nM. Moreover, on human FGFR4, the IC50 was found to be 4.6 nM and the “Inhibition activity difference (IC50 ratio) FGFR4/FGFR1” value is recorded as 15.

The values above are taken from US11130761B2, “Substituted pyrrolo[2,1-f][1,2,4]triazines as FGFR inhibitors” (CSPC ZHONGQI PHARMACEUTICAL TECHNOLOGY (SHIJIAZHUANG) CO., …, priority 2016, dated 2021).
